Here are results for one molecule from BindingDB's records for doi:10.1021/jm960324r (1996).

Broadly, the IC50 is the concentration that inhibits the measured activity by half. A low value points to higher potency.

This experiment has as its system Herpes simplex virus (HSV) ribonucleotide reductase (RR) enzyme. Description: Inhibitory effect was evaluated on Herpes simplex virus (HSV) ribonucleotide reductase (RR) enzyme.

The molecule `CC(C)C[C@@H](NC(=O)[C@@H](CC(=O)O)NC(=O)[C@H](CC(=O)N1CCCC1)NC(=O)[C@H](NC(=O)NC1[C@@H](C)CCC[C@@H]1C)C(C)C)C(=O)O` came in with an IC50 of 20 nM.
